Reference: patent publication US4017606A, “Organic compounds and process” (The Upjohn Company, priority 1975, dated 1977)
Each block holds one compound with its values, some of them ahead of it.

Key:
[1] = Serum half life of cytosine arabinoside in beagle dogs with or without tetrahydrouridine; conditions: dog, in vivo
Text: (§1) This is especially reflected in a drop in the blood level of cytosine arabinoside, usually concomitant with an increase in uracil arabinoside. This destruction of cytosine arabinoside is brought about by a deaminase enzyme present in the blood and tissues of the animal. […] For example, deamination of cytosine arabinoside in rhesus monkey blood by liver deaminase was inhibited about 90% by the addition of one part of 4-hydroxyl-1-β-D-ribofuranosyl-tetrahydro-2(1H)-pyrimidinone (tetrahydrouridine) to 820 parts of cytosine arabinoside.

liver deaminase = assay: Deamination of cytosine arabinoside in rhesus monkey blood by liver deaminase; format: biochemical; conditions: one part of tetrahydrouridine to 820 parts of cytosine arabinoside
Text: as §1

[2] = target: deaminase enzymes (centrifuged 25 percent homogenate of normal human liver) (Homo sapiens, UniProt P32320); assay: Competitive efficacy (C.E.) test: inhibition of cytosine arabinoside deamination; conditions: 1.0 micromole tritiated Ca, pH 8.0, 37° C., 45 minutes
Description: The inhibition of cytosine arabinoside deamination by a compound is conveniently expressed in terms of its competitive efficacy (C.E.). The competitive efficacy of a compound is determined as follows:
Enzyme reaction mixture are prepared in 12-ml. centrifuge tubes in an ice bath. […] This is the standard reaction mixture. […] The tubes are then assayed for radioactive uracil arabinoside as described below, and the percent conversion of tritiated Ca to tritiated uracil arabinosie is calculated. A standard curve of the percent conversion vs. log10 of the initial ratio of untritiated Ca to tritiated Ca is plotted. This is the standard curve for the C.E. test.
Reaction mixture for C.E. test.
To determine the C.E. of a compound, known amounts of the compound are added to the above standard reaction mixture and the percent conversion of tritiated Ca to tritiated uracil arabinoside is measured. […] From this ratio and the amount of test compound in the assay reaction mixture, the C.E. is calculated. […]
After 45 minute incubation of the enzyme reaction mixtures, further reaction is stopped by the addition of one-half volume of iced, 15 percent trichloroacetic acid. […] Suitable quantities (4 microliters) of clear supernatant solution are co-chromatographed with a mixture of 40 millimicromoles each of non-tritiated carrier Ca and uracil arabinoside on Whatman No. 40 paper. […]

myelogenous leukemia = conditions: adults; 1 to 5 mg./kg. weekly intravenously or subcutaneously as maintenance; cited from earlier work

Sequence of deaminase enzymes (centrifuged 25 percent homogenate of normal human liver) (P32320 whole entry): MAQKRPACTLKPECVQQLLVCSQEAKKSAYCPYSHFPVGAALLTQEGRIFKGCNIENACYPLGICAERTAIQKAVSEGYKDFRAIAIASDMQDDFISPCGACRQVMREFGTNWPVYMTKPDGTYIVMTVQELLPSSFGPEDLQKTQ

half life of cytosine arabinoside in the serum ([1]; iv): 2.27 to 3 h
inhibition of deamination of cytosine arabinoside (liver deaminase): about 90%
Compound: O=C1NC(O)CCN1[C@@H]1O[C@H](CO)[C@@H](O)[C@H]1O (single isomer, unassigned) [tetrahydrouridine, 4-hydroxy-1-β-D-ribofuranosyl-tetrahydro-2(1H)-pyrimidinone]

Competitive Efficacy [2]: 200
Compound: O=C1NCCCN1[C@@H]1O[C@H](CO)[C@@H](O)[C@H]1O [E]

Compound: Nc1ccn([C@@H]2O[C@H](CO)[C@@H](O)[C@@H]2O)c(=O)n1 [cytosine arabinoside, 1-β-D-arabinofuranosylcytosine, reference compound]
half-life ([1]; control dogs without tetrahydrouridine, 50 mg./kg. cytosine arabinoside intravenous): 1.1 to 1.33 h
duration of remission of myelogenous leukemia (bone marrow response) (myelogenous leukemia): more than 203 days
